Reference: PubChem BioAssay AID720632 (Broad Institute, 2013)
Activity calls are given as the source filed them. No rule for the calls is given here.

Target: Caspase-6 (Homo sapiens) (UniProt P55212)
Assay: human caspase-6 inhibitors, dose response, biochemical, VEID-R110 fluorescence, cherry-pick (AID 720632)
Conditions: caspase-6, VEID-R110 fluorogenic substrate; at 26 µM (top of the series)

Sequence of Caspase-6 (Homo sapiens) (P55212 24-179 limits assumed): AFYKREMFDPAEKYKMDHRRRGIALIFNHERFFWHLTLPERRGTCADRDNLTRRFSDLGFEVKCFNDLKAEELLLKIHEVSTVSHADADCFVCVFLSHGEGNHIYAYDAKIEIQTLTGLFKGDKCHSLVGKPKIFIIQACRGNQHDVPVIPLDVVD
Sequence of Caspase-6 (Homo sapiens) (P55212 194-293 limits assumed): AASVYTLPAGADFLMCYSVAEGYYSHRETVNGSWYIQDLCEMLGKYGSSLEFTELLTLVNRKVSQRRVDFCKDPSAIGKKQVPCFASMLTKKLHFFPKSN

Compound | activity change, negative = inhibition
CO[C@H]1CN(C)C(=O)c2ccc(NC(=O)C3CC3)cc2OC[C@H](C)N(Cc2cccc(F)c2)C[C@H]1C | inactive
Cc1ccc(C)c(S(=O)(=O)N2CCN(C(C)C(=O)Nc3ccccc3-c3ccccc3)CC2)c1 (configuration not stated) | inactive
COc1cccc(C(NC(=O)C2CCN(CCCOc3ccccc3)CC2)c2ccccn2)c1 (configuration not stated) | inactive
COC(=O)c1ccc(COc2cc([N+](=O)[O-])cc3cccnc23)o1 | inactive
CCC1CCc2sc(C(=O)NNC(=O)c3ccncc3)cc2C1 (configuration not stated) | inactive
O=c1[nH]c2ccc(F)cc2[nH]c1=O | inactive
CO[C@@H]1CN(C)C(=O)c2ccc(NC(=O)C3CC3)cc2OC[C@H](C)N(CC2CCOCC2)C[C@H]1C | inactive
COc1ccc(S(=O)(=O)n2cnc3ccccc32)cc1OC | inactive
COc1ccc2oc(C(=O)N3CCN(c4ncccn4)CC3)c(C)c2c1 | inactive
Cc1ccccc1OC1(C)CCN(Cc2ccc(-c3ccccn3)cc2)C1 (configuration not stated) | inactive
Cc1ccc([N+](=O)[O-])cc1S(=O)(=O)Nc1ccc(C(=O)N2CCN(C(=O)c3ccco3)CC2)cc1 | inactive
O=C(Nc1ccccc1)c1nc[nH]c1C(=O)Nc1ccccc1F | inactive
COc1ccc(/C=N/NC(=O)c2ccccc2O)cc1CN1CCOCC1 | inactive
CO[C@H]1CN(C)C(=O)c2ccc(NC(=O)C3CC3)cc2OC[C@@H](C)N(Cc2cccc(F)c2)C[C@@H]1C | inactive
CSCCC(NC(=O)COc1ccccc1)C(=O)N(C)CC(=O)Nc1c(C)cccc1C (configuration not stated) | inactive
O=C(N/N=C/c1cccnc1)c1cc(O)c(O)c(O)c1 | inactive
CN1CCN(CC(=O)Nc2ccc(Cl)cc2Cl)CC1 | inactive
C/C(=N\NC(=O)c1ccccc1O)c1ccc(NC(=O)Cc2ccccc2)cc1 | inactive
COc1ccc(C(=O)Nc2ccc3ccccc3c2)c(OC)c1 | inactive
O=C(CCCCCn1c(=S)[nH]c2cc3c(cc2c1=O)OCO3)N1CCN(Cc2ccccc2)CC1 | inactive
Cn1c(=O)[nH]c(=O)c2c1nc(CN1CCOCC1)n2Cc1ccccc1 | inactive
Cc1ccc(NC(=O)c2ccc([N+](=O)[O-])o2)cc1S(=O)(=O)N1CCOCC1 | inactive
O=C(O)c1cccc(Nc2ccnc(Nc3cccc(C(=O)O)c3)n2)c1 | inactive
O=C(Nc1ccccc1)C1CCN(S(=O)(=O)c2ccc3c(c2)OCCO3)CC1 | inactive
COC(=O)c1ccc(CNC(=O)COC(=O)c2ccccc2-c2ccccc2)cc1 | inactive
O=C(COC(=O)c1cccc(OC(F)F)c1)Nc1cccc(S(=O)(=O)N2CCCC2)c1 | inactive
COc1ccc(OC)c(N/C(=N/c2nc(C)cc(C)n2)NC(C)=O)c1 | inactive
